SMILES strings stand for the structures.

The subject of one assay is cyanuric acid hydrolase. The settings on record: no turnover observed; cited from earlier work.
In assay [1] the test system is biuret hydrolase. Nature of the assay: BiuH activity in the presence of urea (Berthelot ammonia assay). The assay is classed as biochemical, Herbaspirillum sp. BH-1. How it is done:
(§1) Analytical methods: The colorimetric Berthelot ammonia assay was used to measure residual ammonium (NH4^+) present in the urea and to detect NH4^+ released from the residual biuret in urea by addition of biuret hydrolase (BiuH) enzyme. The assay was conducted by adding 0.100 ml of sample directly to 0.300 ml of solution A (10 g/L phenol and 0.050 g/L sodium nitroprusside), followed by addition of 0.400 ml of solution B (5 g/L sodium hydroxide and 8.25 ml/L of commercial chlorine bleach or 5.25% sodium hypochlorite). The reactions were pulsed on a vortex mixer, incubated at 37° C. for 60 min, and then absorbance at 630 nm was read with a Beckman-Coulter DU-640 spectrophotometer. Quantification of NH4^+ was done via a standard curve prepared from ammonium chloride (NH4Cl) (Sigma-Aldrich, St. Louis, Mo.) standards at 5-1000 μM in deionized reverse osmosis (DI/RO) water that were analyzed with the Berthelot reaction.
BiuH activity in the presence of urea: Biuret degradation reactions were performed by adding 10-20 μg purified BiuH to 0.5 ml of urea standards (0.5-8 M) in DI/RO water in 1.7 ml microcentrifuge tubes. […] Total ammonium (NH4^+) was quantified with the Berthelot assay. Residual biuret present in urea was determined by treating unspiked urea standards with BiuH and subtracting the amount of residual NH4^+ detected above. […]

For assay [2], the target named is T1, biuret hydrolase (Rhizobium johnstonii, UniProt Q1M7F4).
T1 construct: six-histidine tag (C); made in house; host or cells: Escherichia coli BL21(DE3)
T1 sequence (Q1M7F4 whole entry): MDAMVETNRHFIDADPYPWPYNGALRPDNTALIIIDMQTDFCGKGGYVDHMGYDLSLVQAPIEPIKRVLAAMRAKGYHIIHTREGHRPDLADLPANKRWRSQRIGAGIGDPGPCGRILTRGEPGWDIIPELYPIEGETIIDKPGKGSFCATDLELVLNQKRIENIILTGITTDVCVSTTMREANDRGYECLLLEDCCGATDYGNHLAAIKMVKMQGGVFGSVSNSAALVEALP
Nature of the assay: Inhibition of biuret hydrolase by urea, kinetic constants. The assay is classed as biochemical.

The test system of assay [3] is native biuret hydrolase (BiuH) from Herbaspirillum sp. BH-1, six-histidine tag. Nature of the assay: BiuH activity in the presence of urea (Berthelot ammonia assay, FIGS. 4, 5A-5B). The assay is classed as biochemical. How it is done:
FIG. 4. Evaluation of urea inhibition of biuret hydrolase and various urea concentrations. Biuret was added at 0.8 mM concentration and 30 microgram enzyme per ml incubated for 30 minutes.
as §1
Enzyme purification: A synthetic gene encoding the native biuret hydrolase from Herbaspirillum sp. BH-1 was expressed with a C- or N-terminal six-histidine tag from an isopropyl-β-D-thiogalactoside (IPTG)-inducible promoter T7 promoter on a plasmid in Eschrichia coli BL2(DE3). Cells were harvested by centrifugation and lysed with a French pressure cell (two passages at 124 MPa) in a buffer of 20 mM sodium phosphate (pH 7.4), 500 mM sodium chloride, 10 mM imidazole, and 10 mM 2-mercaptoethanol. The resulting crude lysate was centrifuged at 19,000×g for 60 min and the supernatant was passed through a […] filter. An AKTA FPLC system (GE Healthcare, Chicago, Ill.) was used to inject the filtrate (cleared crude lysate) onto a HisTrap affinity column (GE Healthcare) charged with Ni^2+ ions. Bound BiuH was eluted from the column with a linear gradient of 20-250 mM imidazole in the same buffer. […] Total protein concentration was determined with the BioRad (Hercules, Calif.) Bradford protein assay reagent and BiuH purity was verified by SDS-PAGE. […]
BiuH activity in the presence of urea: Biuret degradation reactions were performed by adding 10-20 μg purified BiuH to 0.5 ml of urea standards (0.5-8 M) in DI/RO water in 1.7 ml microcentrifuge tubes. […] Total ammonium (NH4^+) was quantified with the Berthelot assay. Residual biuret present in urea was determined by treating unspiked urea standards with BiuH and subtracting the amount of residual NH4^+ detected above. […] Net NH4^+ released from the spiked biuret by BiuH was calculated by subtracting the amounts of residual biuret and NH4^+ detected in the control treatments. […]

The target in assay [4] is T2, triuret hydrolase (TrtA) from Herbaspirillum sp. BH-1 (Herbaspirillum sp. BH-1, UniProt A0A2N6JFX7).
T2 sequence (A0A2N6JFX7 1-227): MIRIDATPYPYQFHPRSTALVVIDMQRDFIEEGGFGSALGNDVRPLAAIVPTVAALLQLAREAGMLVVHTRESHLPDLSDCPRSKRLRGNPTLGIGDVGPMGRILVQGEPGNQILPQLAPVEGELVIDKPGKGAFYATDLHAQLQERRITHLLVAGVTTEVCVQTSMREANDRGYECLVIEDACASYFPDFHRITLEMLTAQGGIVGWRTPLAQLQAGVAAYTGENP
Briefly: Kinetic constants of triuret hydrolase (Km for triuret, inhibition by urea, FIG. 16B). The assay is classed as biochemical. Conditions: urea concentrations up to 50 mM.

Consider `O=C1CC(=O)NC(=O)N1` [barbituric acid], for which the “effect on cyanuric acid hydrolase” value with cyanuric acid hydrolase is reported as “inhibitor”.

Usually Km stands for the concentration of substrate that gives half-maximal velocity. Regarding `NC(=O)NC(=O)NC(N)=O` [triuret], the Km in the assay on triuret hydrolase (read-out: Km for triuret) lay in the range of 20 to 21 µM.

As usually defined, the Ki is the dissociation constant of the complex between target and ligand, obtained from inhibition or displacement. With `NC(N)=O` [urea], the “inhibition of biuret hydrolase by urea” value in the assay on biuret hydrolase [1] (4M urea, NH4+ released from residual biuret in 0.5-8.0 M Fluka urea) is given as “slight inhibition”; with biuret hydrolase [1] (urea up to 0.5M, biuret 0.8 mM, 30 microgram enzyme per ml, 30 minutes), “not inhibited”. The “inhibition of triuret hydrolase by urea” value in the assay with triuret hydrolase (urea concentrations up to 50 mM) is recorded as “no inhibition”. This compound yielded a Ki on biuret hydrolase [2] of 34 mM. Also, the inhibition by urea entry in assay [3] (4M urea, residual biuret in Fluka urea) was “slight inhibition”; in assay [3] (10,000 fold higher concentration of urea than biuret), “not inhibited”; in assay [3] (urea concentrations higher than 4M (up to 8.0 M), residual biuret in Fluka urea) it was “stronger inhibition”; in assay [3] (urea up to 0.5M, 0.8 mM biuret, 30 microgram enzyme per ml, 30 minutes) it was “not inhibited”; in assay [4], “no inhibition was measurable”.

The record behind these values is patent publication US20220389465A1, “METHODS OF REDUCING BIURET IN UREA COMPOSITIONS” (Regents of the University of Minnesota, priority 2019, published 2022).
